Key:
Conditions in all cases: 48 h
NOMO1 [1] = experiment: cell viability relative to DMSO control; higher = less cytotoxic
In short: (§1)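 NOMO1, SEM and P12-Ichikawa leukemia cells spent at least four passages adapting to each medium before use. They were seeded at 500 cells/well (NOMO1, SEM) or 1000 cells/well (P12-Ichikawa) in 5 μl in 1536-well plates and pin-dosed with library compounds in DMSO at 11 threefold steps from 47 μM down to 0.79 nM. After 48 h at 37°C, CellTiter-Glo One luminescence was read. Viability is reported as a percentage of the DMSO wells on each plate, with cell-free wells as background.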

P12-Ichikawa [2] = experiment: as above
In short: as §1

SEM cells [3] = experiment: as above
In short: as §1

NOMO1 [4] = experiment: AUC of viability dose-response curve (% viability x log10 dose units); higher = less sensitive
In short: (§2)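 Leukemia cells adapted to each medium were seeded at 500 or 1000 cells/well in 1536-well plates and dosed with library compounds in DMSO at 11 threefold doses from 47 μM to 0.79 nM for 48 h at 37°C. CellTiter-Glo One luminescence was normalised per plate to DMSO and cell-free wells, then fitted with a four-parameter log-logistic model over log10 doses. Area under the curve was taken from this fit by the trapezoidal rule, with curves above full viability scaled and curves failing quality control removed.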

P12-Ichikawa [5] = experiment: as above
In short: as §2

SEM cells [6] = experiment: as above
In short: as §2

OC(CN1CCN(c2cccc(Cl)c2)CC1)C(c1ccccc1)c1ccccc1 (configuration not stated)
cell viability [%]
Conditions | NOMO1 [1] | P12-Ichikawa [2] | SEM cells [3]
HPLM + 10% dialyzed FBS, 0.000781 µM | – | 109 | 99.1
HPLM + 10% dialyzed FBS, 0.00234 µM | – | 114 | 97.9
HPLM + 10% dialyzed FBS, 0.00702 µM | – | 119 | 102
HPLM + 10% dialyzed FBS, 0.0211 µM | – | 111 | 101
HPLM + 10% dialyzed FBS, 0.0632 µM | – | 120 | 104
HPLM + 10% dialyzed FBS, 0.19 µM | – | 23.4 | 110
HPLM + 10% dialyzed FBS, 0.569 µM | – | 17.3 | 92.1
HPLM + 10% dialyzed FBS, 1.71 µM | – | 4.64 | 10.6
HPLM + 10% dialyzed FBS, 5.12 µM | – | 4.77 | 8.66
HPLM + 10% dialyzed FBS, 15.4 µM | – | 4.92 | 7.09
HPLM + 10% dialyzed FBS, 46.1 µM | – | 5.05 | 7.14
RPMI 5 mM glucose + 10% FBS, 0.000781 µM | 116 | 112 | 101
RPMI 5 mM glucose + 10% FBS, 0.00234 µM | 119 | 117 | 95.2
RPMI 5 mM glucose + 10% FBS, 0.00702 µM | 133 | 114 | 106
RPMI 5 mM glucose + 10% FBS, 0.0211 µM | 127 | 115 | 107
RPMI 5 mM glucose + 10% FBS, 0.0632 µM | 132 | 123 | 111
RPMI 5 mM glucose + 10% FBS, 0.19 µM | 126 | 126 | 32.4
RPMI 5 mM glucose + 10% FBS, 0.569 µM | 108 | 114 | 24
RPMI 5 mM glucose + 10% FBS, 1.71 µM | 22.7 | 7.71 | 6.74
RPMI 5 mM glucose + 10% FBS, 5.12 µM | 16.6 | 6.13 | 8
RPMI 5 mM glucose + 10% FBS, 15.4 µM | 14.1 | 5.76 | 8.3
RPMI 5 mM glucose + 10% FBS, 46.1 µM | 7.62 | 5.28 | 7.07
RPMI 5 mM glucose + 10% dialyzed FBS, 0.000781 µM | 124 | 102 | 111
RPMI 5 mM glucose + 10% dialyzed FBS, 0.00234 µM | 118 | 112 | 95.2
RPMI 5 mM glucose + 10% dialyzed FBS, 0.00702 µM | 124 | 111 | 104
RPMI 5 mM glucose + 10% dialyzed FBS, 0.0211 µM | 126 | 112 | 103
RPMI 5 mM glucose + 10% dialyzed FBS, 0.0632 µM | 138 | 118 | 105
RPMI 5 mM glucose + 10% dialyzed FBS, 0.19 µM | 125 | 105 | 38.2
RPMI 5 mM glucose + 10% dialyzed FBS, 0.569 µM | 126 | 84.9 | 42.9
RPMI 5 mM glucose + 10% dialyzed FBS, 1.71 µM | 31 | 4.96 | 7.36
RPMI 5 mM glucose + 10% dialyzed FBS, 5.12 µM | 27.8 | 5.14 | 8.19
RPMI 5 mM glucose + 10% dialyzed FBS, 15.4 µM | 24 | 4.91 | 8.02
RPMI 5 mM glucose + 10% dialyzed FBS, 46.1 µM | 9.63 | 4.74 | 7.53

AUC of viability dose-response curve
Conditions | NOMO1 [4] | P12-Ichikawa [5] | SEM cells [6]
HPLM + 10% dialyzed FBS | 265 | 238 | 319
RPMI 5 mM glucose + 10% FBS | 324 | 318 | 252
RPMI 5 mM glucose + 10% dialyzed FBS | 341 | 307 | 257
